Test results reported in patent US20250236619A1, “FUSED BICYCLIC COMPOUND CONTAINING PYRROLINONE” (CHIA TAI TIANQING PHARMACEUTICAL GROUP CO., LTD., priority 2022, published 2025).
Where two headings read alike, the source gives them in different places.

What was measured:
HPK1 kinase = HPK1 kinase (Homo sapiens (Human), UniProt Q92918); experiment: Assay for in vitro inhibitory activity against HPK1 kinase; assay type: biochemical; conditions: HPK1 1 ng/μL, ATP 1 mM, STK Substrate 1-biotin 500 nM
Experimental: Experimental Example 1: Assay for In Vitro Inhibitory Activity Against HPK1 Kinase A kinase buffer (Enzymatic buffer 5×) was diluted to 1×, and 10 mM MgCl2, 1 mM DTT, and 0.005% Tween 20 were added. A 100 ng/μL HPK1 (Life technology) stock solution was diluted with the kinase buffer to obtain a 1.67×, 1.67 ng/μL working solution (final concentration: 1 ng/μL), and the working solution was seeded in a 384-well plate at 6 μL/well. Different compounds dissolved in DMSO were added to the wells using a nanoliter pipettor to obtain final concentrations of the compounds of 1000 nM to 0.244 nM (4-fold serial dilution, 7 concentrations in total), and blank control wells (without enzyme) and negative control wells (with enzyme, plus vehicle DMSO) were set; the wells were set in duplicate. After the enzyme and the compounds were incubated at room temperature for 1 h, a 5×, 5 mM ATP dilution (final concentration: 1 mM) in the kinase buffer was mixed with a 5×, […] substrate (Cisbio, STK Substrate 1-biotin; final concentration: 500 nM) in equal volume, and the mixture was added to the plate at 4 µL/well. The plate was sealed with a film and then incubated at room temperature for 2 h. An assay antibody solution was prepared by mixing the antibody STK Antibody-cryptate (Cisbio, 5 μL/test) and a 4×, 500 nM Streptavidin-XL665 (Cisbio; final concentration: 125 nM) in equal volume and added to the plate at 10 μL/well. The plate was incubated at room temperature for 1 h. The signal values (excitation: […]) were measured using a PE Envision multimode microplate reader, and IC50 was calculated by four-parameter fitting.

[1] = system: p-SLP76 phosphorylation of Jurkat cells; experiment: Assay for inhibitory activity against p-SLP76 phosphorylation of Jurkat cells; assay type: cell-based; conditions: stimulator CD3CD28, 30 min, read-out: IC50 (nM) for inhibition of p-SLP76 phosphorylation of Jurkat cells
Experimental: 2.1 Assay for Inhibitory Activity Against p-SLP76 Phosphorylation of Jurkat Cells
Jurkat cells in a good growth state were added to a centrifuge tube, centrifuged, and resuspended. The cell density was adjusted to 6.25×10^6 cells/mL, and the cells were seeded in a 384-well small-volume white plate at […]. Different compounds dissolved in DMSO were added to the wells using a nanoliter pipettor to obtain final concentrations of the compounds of 2500 nM to 10.29 nM, and a control was set; the wells were set in duplicate. After 1 h of cell culture, the stimulator CD3CD28 (manufacturer: stemcell, 4 μL) was added and the cells were incubated at 37° C. for 30 min. 3 μL of lysis buffer (manufacturer: BioAuxilium) was added to each well, and the plate was shaken at room temperature for 30 min. After the lysate was well mixed, 5 μL of pre-mixed antibody (manufacturer: BioAuxilium) in assay buffer was added and the plate was incubated overnight at room temperature. The signal values were measured on a PerkinElmer Envision multimode microplate reader (excitation: 320 nm, emission: 615 nm/665 nm), and IC50 was calculated by four-parameter filling.

Chain of HPK1 kinase (Q92918 whole entry): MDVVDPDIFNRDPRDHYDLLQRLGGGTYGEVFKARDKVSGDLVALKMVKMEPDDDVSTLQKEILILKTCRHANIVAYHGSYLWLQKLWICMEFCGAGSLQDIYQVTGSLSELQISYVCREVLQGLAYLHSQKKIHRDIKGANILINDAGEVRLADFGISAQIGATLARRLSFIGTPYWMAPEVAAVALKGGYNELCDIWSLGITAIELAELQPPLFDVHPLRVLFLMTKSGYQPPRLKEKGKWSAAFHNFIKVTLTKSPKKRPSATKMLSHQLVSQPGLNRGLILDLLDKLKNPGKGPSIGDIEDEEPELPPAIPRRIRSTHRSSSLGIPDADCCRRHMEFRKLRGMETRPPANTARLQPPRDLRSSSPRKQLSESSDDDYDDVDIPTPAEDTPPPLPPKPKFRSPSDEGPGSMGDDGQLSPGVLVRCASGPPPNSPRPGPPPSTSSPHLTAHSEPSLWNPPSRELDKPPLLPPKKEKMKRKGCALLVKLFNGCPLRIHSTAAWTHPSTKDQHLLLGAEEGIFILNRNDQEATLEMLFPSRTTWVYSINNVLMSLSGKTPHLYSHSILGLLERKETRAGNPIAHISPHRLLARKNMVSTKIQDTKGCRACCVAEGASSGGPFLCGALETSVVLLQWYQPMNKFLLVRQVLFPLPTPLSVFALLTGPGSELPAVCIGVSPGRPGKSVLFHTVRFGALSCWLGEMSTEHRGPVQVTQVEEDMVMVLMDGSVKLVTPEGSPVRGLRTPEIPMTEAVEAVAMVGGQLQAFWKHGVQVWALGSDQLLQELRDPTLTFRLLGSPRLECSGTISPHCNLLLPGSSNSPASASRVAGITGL

| SMILES | IC50 ([1]; Homo sapiens, 0.5 h) [nM] | IC50 (HPK1 kinase) [nM] | IC50 [1] [nM] |
| --- | --- | --- | --- |
| CN(C)Cc1nc(Nc2ccc(-c3cnn4ccc5ccoc5c34)c3c2C(=O)NC3)ccc1C1CCOCC1 [Compound I-11] | – | 1.6 | – |
| CN(C)Cc1nc(Nc2ccc(-c3ccnc4c3c3c(n4C)CCC3)c3c2C(=O)NC3)ccc1N1CC[C@@H](O)C1 [Compound I-12] | – | 5.1 | – |
| CN(C)Cc1nc(Nc2cnc(-c3ccnc4c3c3c(n4C)CCC3)c3c2C(=O)NC3)ccc1N1CCOCC1 [Compound I-13] | – | 3.5 | – |
| [2H]C([2H])([2H])N(Cc1nc(Nc2cnc(-c3ccnc4c3c3c(n4C)CCC3)c3c2C(=O)NC3)ccc1C1CCOCC1)C([2H])([2H])[2H] [Compound I-14] | – | 1.4 | – |
| CN(C)Cc1nc(Nc2ccc(-c3nnc4ccc5c(n34)CCC5)c3c2C(=O)NC3)ccc1C1CCOCC1 [Compound I-18] | – | 9.8 | – |
| CN(C)Cc1nc(Nc2ccc(-c3ncnc4c3c3c(n4C)CCC3)c3c2C(=O)NC3)ccc1C1CCOCC1 [Compound I-20] | – | 3.2 | – |
| CN(C)Cc1nc(Nc2ccc(-c3ncnc4[nH]c5ccccc5c34)c3c2C(=O)NC3)ccc1C1CCOCC1 [Compound I-22] | – | 7.5 | 50 to 100 |
| CN(C)Cc1nc(Nc2ccc(-c3nnc4cc5c(nn34)CCC5)c3c2C(=O)NC3)ccc1C1CCOCC1 [Compound I-26] | – | 16 | – |
| CN(C)Cc1nc(Nc2ccc(-c3nnc4cc5c(cn34)CCC5)c3c2C(=O)NC3)ccc1C1CCOCC1 [Compound I-27] | – | 23 | – |
| CN(C)Cc1nc(Nc2ccc(-c3cnn4cc5c(nc34)CCC5)c3c2C(=O)NC3)ccc1C1CCOCC1 [Compound I-30] | – | 3.6 | 50 to 100 |
| CN(C)Cc1nc(Nc2ccc(-c3cnc4ccc5c(ccn5C)n34)c3c2C(=O)NC3)ccc1C1CCOCC1 [Compound I-32] | – | 4.4 | < 50 |
| CN(C)Cc1nc(Nc2ccc(-c3nnc4ccc5occc5n34)c3c2C(=O)NC3)ccc1C1CCOCC1 [Compound I-33] | – | 2.9 | < 50 |
| CN(C)Cc1nc(Nc2ccc(-c3nnc4ccc5c(n34)OCC5)c3c2C(=O)NC3)ccc1C1CCOCC1 [Compound I-36] | – | 5.3 | 50 to 100 |
| CN(C)Cc1nc(Nc2cnc(-c3cnc4ccc5sccc5n34)c3c2C(=O)NC3)ccc1C1CCOCC1 [Compound I-41] | – | 18 | – |
| CN(C)Cc1nc(Nc2ccc(-c3cnc4n3C3CC3C4)c3c2C(=O)NC3)ccc1C1CCOCC1 (stereo not drawn) [Compound I-43] | – | 16 | – |
| CN(C)Cc1nc(Nc2ccc(-c3cnn4ccc5occc5c34)c3c2C(=O)NC3)ccc1N1CCN(C)C1=O [Compound I-49] | – | 6.1 | < 50 |
| CN(C)Cc1nc(Nc2ccc(-c3cnn4ccc5occc5c34)c3c2C(=O)NC3)ccc1N1CCCC1=O [Compound I-51] | – | 5.8 | < 50 |
| CN(C)Cc1nc(Nc2ccc(-c3cnn4ccc5occc5c34)c3c2C(=O)NC3)ccc1C1CC(=O)N(C)C1 (stereo not drawn) [Compound I-59] | < 50 | – | – |
| CN(C)Cc1nc(Nc2ccc(-c3cnn4ccc5occc5c34)c3c2C(=O)NC3)ccc1C1CCN(C)C(=O)C1 (stereo not drawn) [Compound I-60] | < 50 | 2.8 | – |
| CN(C)Cc1nc(Nc2ccc(-c3cnc4ccc5occc5n34)c3c2C(=O)NC3)ccc1C1CCN(C)C(=O)C1 (stereo not drawn) [Compound I-66] | < 50 | – | – |
| CN(C)Cc1nc(Nc2ccc(-c3cnc4cnc5occc5n34)c3c2C(=O)NC3)ccc1[C@@H]1CCN(C)C(=O)C1 [Compound I-68] | – | 7.7 | – |
| CN(C)Cc1nc(Nc2ccc(-c3cnc4cnc5occc5n34)c3c2C(=O)NC3)ccc1[C@H]1CCN(C)C(=O)C1 [Compound I-69] | – | 3.7 | < 50 |
| CC(=O)N(C)c1ccc(Nc2ccc(-c3cnn4ccc5occc5c34)c3c2C(=O)NC3)nc1CN(C)C [Compound I-70] | < 50 | – | – |
| CN(C)Cc1nc(Nc2ccc(-c3cnc4ccc5occc5n34)c3c2C(=O)NC3)ccc1[C@H]1CCN(C)C(=O)C1 [Compound I-72] | – | 3.7 | < 50 |
| CN(C)Cc1nc(Nc2ccc(-c3cnc4ccc5occc5n34)c3c2C(=O)NC3)ccc1[C@@H]1CCN(C)C(=O)C1 [Compound I-73] | – | 2.9 | < 50 |
| CN(C)Cc1nc(Nc2ccc(-c3cnn4c3CC3(CC3)C4)c3c2C(=O)NC3)ccc1N1CCN(C)C(=O)C1 [Compound I-75] | – | 3.4 | 50 to 100 |
| CN(C)Cc1nc(Nc2ccc(-c3cnn4ccc5occc5c34)c3c2C(=O)NC3)ccc1N1CCN(C)C(=O)C1 [Compound I-76] | < 50 | – | – |
| CN(C)Cc1nc(Nc2ccc(-c3cnn4ccc5occc5c34)c3c2C(=O)NC3)ccc1-c1ccn(C)c(=O)c1 [Compound I-81] | < 50 | – | – |
| CN(C)Cc1nc(Nc2ccc(-c3ccnc4c3cc3n4CCC3)c3c2C(=O)NC3)ccc1C1CCN(C)C(=O)C1 (stereo not drawn) [Compound I-82] | – | 3 | – |
| CNCc1nc(Nc2ccc(-c3cnn4ccc5occc5c34)c3c2C(=O)NC3)sc1C1CCOCC1 [Compound I-85] | < 50 | – | – |

Now from value to compound, other results behind:

| IC50 ([1]; Homo sapiens, 0.5 h) [nM] | SMILES | IC50 (HPK1 kinase) [nM] | IC50 [1] [nM] |
| --- | --- | --- | --- |
| < 50 | CN(C)Cc1nc(Nc2cnc(-c3ccnc4c3c3c(n4C)CCC3)c3c2C(=O)NC3)ccc1C1CCOCC1 [Compound I-6] | 2.5 | – |
| < 50 | CN(C)Cc1nc(Nc2ccc(-c3ccnc4c3c3c(n4C)CCC3)c3c2C(=O)NC3)ccc1C1CCOC1 (stereo not drawn) [Compound I-8] | 3.1 | – |
| 50 to 100 | CN(C)Cc1nc(Nc2cnc(-c3ccnc4c3c3c(n4C)CCC3)c3c2C(=O)NC3)ccc1C1(O)CCOCC1 [Compound I-10] | 5.6 | – |
| < 50 | [2H]C([2H])(c1nc(Nc2cnc(-c3ccnc4c3c3c(n4C)CCC3)c3c2C(=O)NC3)ccc1C1CCOCC1)N(C)C [Compound I-17] | – | – |
| 50 to 100 | CN(C)Cc1nc(Nc2ccc(-c3ncnc4[nH]c5c(c34)CCC5)c3c2C(=O)NC3)ccc1C1CCOCC1 [Compound I-24] | – | – |
| < 50 | CN(C)Cc1nc(Nc2ccc(-c3cnc4ccc5occc5n34)c3c2C(=O)NC3)ccc1C1CCOCC1 [Compound I-28] | 2 | – |
| < 50 | CN(C)Cc1nc(Nc2ccc(-c3cnn4c3CC3(CC3)C4)c3c2C(=O)NC3)ccc1C1CCOCC1 [Compound I-34] | – | – |
| 50 to 100 | CN(C)Cc1nc(Nc2ccc(-c3cnc4ccc5c(n34)CCO5)c3c2C(=O)NC3)ccc1C1CCOCC1 [Compound I-35] | – | – |
| < 50 | CN(C)Cc1nc(Nc2ccc(-c3cnn4ccc5occc5c34)c3c2C(=O)NC3)ccc1C1CCOCC1 [Compound I-38] | – | – |
| < 50 | CN(C)Cc1nc(Nc2ccc(-c3cnc4ccc5c(n34)OCC5)c3c2C(=O)NC3)ccc1C1CCOCC1 [Compound I-44] | 3.5 | – |
| < 50 | CN(C)Cc1nc(Nc2ccc(-c3cnc4ccc5occc5n34)c3c2C(=O)NC3)ccc1C1(O)CCOCC1 [Compound I-45] | 3.4 | – |
| < 50 | CN(C)Cc1nc(Nc2cnc(-c3cnn4ccc5occc5c34)c3c2C(=O)NC3)ccc1C1CCOCC1 [Compound I-46] | – | – |
| < 50 | CN(C)Cc1nc(Nc2cnc(-c3cnn4ccc5occc5c34)c3c2C(=O)NC3)ccc1N1CCOCC1 [Compound I-47] | – | – |
| < 50 | CN(C)Cc1nc(Nc2ccc(-c3cnc4cnc5occc5n34)c3c2C(=O)NC3)ccc1C1CCOCC1 [Compound I-48] | – | – |
| < 50 | CN(C)Cc1nc(Nc2ccc(-c3cnc4ccc5occc5n34)c3c2C(=O)NC3)ccc1N1CCCC1=O [Compound I-52] | – | – |
| < 50 | [2H]C([2H])(c1nc(Nc2ccc(-c3cnn4c3CC3(CC3)C4)c3c2C(=O)NC3)ccc1C1CCOCC1)N(C)C [Compound I-53] | – | – |
| < 50 | CN(C)Cc1nc(Nc2ccc(-c3cnc4cnc5occc5n34)c3c2C(=O)NC3)ccc1C1CCOC1 (stereo not drawn) [Compound I-54] | – | – |
| 50 to 100 | CN(C)Cc1nc(Nc2ccc(-c3cnc4cnc5occc5n34)c3c2C(=O)NC3)ccc1C1CCN(C)C(=O)C1 (stereo not drawn) [Compound I-61] | – | – |
| < 50 | CN(C)Cc1nc(Nc2ccc(-c3cnn4ccc5occc5c34)c3c2C(=O)NC3)ccc1C1CCCO1 (stereo not drawn) [Compound I-64] | – | – |
| < 50 | CN(C)Cc1nc(Nc2ccc(-c3cnn4c3CC3(CC3)C4)c3c2C(=O)NC3)ccc1C1CCN(C)C(=O)C1 (stereo not drawn) [Compound I-67] | – | – |
| < 50 | CN(C)Cc1nc(Nc2ccc(-c3cnc4cnc5occc5n34)c3c2C(=O)NC3)ccc1C1CCN(C)CC1 [Compound I-80] | – | – |
